The values that follow come from ChEMBL document CHEMBL4622831, “Anti-diabetic drugs recent approaches and advancements” (Bioorg Med Chem, 2020).

Series [1] deals with T1, Glucose-dependent insulinotropic receptor (Homo sapiens, UniProt Q8TDV5).
T1 sequence (Q8TDV5 whole entry): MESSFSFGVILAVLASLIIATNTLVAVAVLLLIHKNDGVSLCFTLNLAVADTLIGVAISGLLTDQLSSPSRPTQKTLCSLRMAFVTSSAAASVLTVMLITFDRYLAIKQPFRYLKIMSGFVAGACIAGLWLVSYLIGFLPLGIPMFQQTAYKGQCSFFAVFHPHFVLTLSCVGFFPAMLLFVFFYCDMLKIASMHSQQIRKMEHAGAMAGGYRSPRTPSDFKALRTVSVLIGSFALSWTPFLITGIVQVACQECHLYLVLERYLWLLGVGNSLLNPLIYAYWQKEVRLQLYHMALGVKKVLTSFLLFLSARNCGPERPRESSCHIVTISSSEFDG
Kind of series: Agonist activity at human GPR119.

Series [2] deals with T2, Dipeptidyl peptidase 4 (Homo sapiens, UniProt P27487). In words: Inhibition of recombinant human DPP4 using Gly-Pro-AMC as substrate preincubated for 10 mins followed by substrate addition.
T2 sequence (P27487 whole entry): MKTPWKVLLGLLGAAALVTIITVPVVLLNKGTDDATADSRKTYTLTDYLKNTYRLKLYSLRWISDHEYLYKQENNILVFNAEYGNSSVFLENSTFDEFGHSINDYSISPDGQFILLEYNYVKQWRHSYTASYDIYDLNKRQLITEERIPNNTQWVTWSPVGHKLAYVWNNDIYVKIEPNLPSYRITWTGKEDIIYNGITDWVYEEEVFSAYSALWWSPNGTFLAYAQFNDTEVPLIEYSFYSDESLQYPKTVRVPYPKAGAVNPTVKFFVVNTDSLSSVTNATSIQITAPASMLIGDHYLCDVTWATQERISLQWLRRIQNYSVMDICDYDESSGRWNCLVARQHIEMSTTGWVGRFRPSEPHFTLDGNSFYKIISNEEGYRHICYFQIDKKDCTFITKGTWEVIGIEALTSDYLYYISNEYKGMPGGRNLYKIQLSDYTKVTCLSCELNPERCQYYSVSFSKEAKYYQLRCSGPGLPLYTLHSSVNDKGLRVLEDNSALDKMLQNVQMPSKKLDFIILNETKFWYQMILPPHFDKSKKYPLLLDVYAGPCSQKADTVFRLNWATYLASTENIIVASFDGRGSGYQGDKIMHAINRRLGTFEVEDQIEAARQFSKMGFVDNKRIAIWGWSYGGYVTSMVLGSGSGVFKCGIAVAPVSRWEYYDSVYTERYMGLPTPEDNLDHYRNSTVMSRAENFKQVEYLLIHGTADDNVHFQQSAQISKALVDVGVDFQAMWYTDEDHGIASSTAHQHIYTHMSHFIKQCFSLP
The species entered for series [3] is Rattus norvegicus. Kind of series: animal or person. The conditions noted are these: Wistar.
Description: Antidiabetic activity in Wistar rat assessed as reduction in glucose levels
The target of series [4] is T3, Peroxisome proliferator-activated receptor gamma (Homo sapiens, UniProt P37231).
T3 sequence (P37231 whole entry): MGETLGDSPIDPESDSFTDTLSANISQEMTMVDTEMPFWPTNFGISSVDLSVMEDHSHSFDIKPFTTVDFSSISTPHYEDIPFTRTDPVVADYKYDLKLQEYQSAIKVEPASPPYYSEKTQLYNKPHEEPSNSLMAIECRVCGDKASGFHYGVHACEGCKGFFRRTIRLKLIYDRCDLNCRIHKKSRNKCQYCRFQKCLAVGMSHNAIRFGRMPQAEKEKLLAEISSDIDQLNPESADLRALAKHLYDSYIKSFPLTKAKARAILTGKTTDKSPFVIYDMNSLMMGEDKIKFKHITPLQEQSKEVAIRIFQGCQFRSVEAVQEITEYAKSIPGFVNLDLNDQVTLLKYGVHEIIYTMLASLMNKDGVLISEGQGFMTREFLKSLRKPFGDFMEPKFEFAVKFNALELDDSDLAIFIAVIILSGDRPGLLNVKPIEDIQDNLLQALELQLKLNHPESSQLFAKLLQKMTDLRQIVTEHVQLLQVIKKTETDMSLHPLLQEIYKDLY
Description: Agonist activity at PPARgamma (unknown origin)

The species entered for series [5] is Mus musculus. In words: animal or person. Conditions: KK-A y.
Description: Antidiabetic activity in KK-A y mouse assessed as reduction in glucose levels
Series [6] has as its target T2, Dipeptidyl peptidase 4. Kind of series: Inhibition of recombinant human DPP4 using Gly-Pro-AMC as substrate preincubated for 10 mins followed by substrate addition by florescence assay.
The target of series [7] is Free fatty acid receptor 1 (Homo sapiens, UniProt O14842).
Sequence of Free fatty acid receptor 1 (O14842 whole entry): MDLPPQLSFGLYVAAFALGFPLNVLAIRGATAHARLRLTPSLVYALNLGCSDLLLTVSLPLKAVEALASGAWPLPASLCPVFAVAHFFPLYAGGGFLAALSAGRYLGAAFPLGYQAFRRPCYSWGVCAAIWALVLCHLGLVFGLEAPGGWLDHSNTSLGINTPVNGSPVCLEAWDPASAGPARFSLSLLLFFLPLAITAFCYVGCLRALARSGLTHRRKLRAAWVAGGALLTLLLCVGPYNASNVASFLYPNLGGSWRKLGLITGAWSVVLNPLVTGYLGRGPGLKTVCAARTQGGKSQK
Description: Modulation of GPR40 (unknown origin)
The target of series [8] is T4, Sodium/glucose cotransporter 1 (Homo sapiens, UniProt P13866).
T4 sequence (P13866 whole entry): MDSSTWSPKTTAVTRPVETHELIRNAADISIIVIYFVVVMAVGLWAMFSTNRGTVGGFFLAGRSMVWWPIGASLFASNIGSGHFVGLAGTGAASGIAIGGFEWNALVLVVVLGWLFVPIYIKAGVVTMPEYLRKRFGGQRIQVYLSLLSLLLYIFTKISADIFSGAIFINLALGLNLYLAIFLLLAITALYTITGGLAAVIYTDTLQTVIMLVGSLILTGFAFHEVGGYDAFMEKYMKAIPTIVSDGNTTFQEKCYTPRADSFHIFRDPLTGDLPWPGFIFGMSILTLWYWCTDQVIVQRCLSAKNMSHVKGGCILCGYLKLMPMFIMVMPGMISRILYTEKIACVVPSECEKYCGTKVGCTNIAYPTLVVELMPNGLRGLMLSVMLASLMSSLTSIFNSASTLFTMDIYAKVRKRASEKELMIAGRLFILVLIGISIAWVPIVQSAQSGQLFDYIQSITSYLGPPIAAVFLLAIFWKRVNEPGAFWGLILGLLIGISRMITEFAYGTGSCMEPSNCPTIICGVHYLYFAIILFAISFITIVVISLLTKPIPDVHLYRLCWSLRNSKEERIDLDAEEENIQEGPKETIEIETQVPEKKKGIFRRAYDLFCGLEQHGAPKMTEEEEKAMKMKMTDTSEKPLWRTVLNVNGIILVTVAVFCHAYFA
Kind of series: Inhibition of human SGLT1.

For series [9], the target named is T5, Sodium/glucose cotransporter 2 (Homo sapiens, UniProt P31639).
T5 sequence (P31639 whole entry): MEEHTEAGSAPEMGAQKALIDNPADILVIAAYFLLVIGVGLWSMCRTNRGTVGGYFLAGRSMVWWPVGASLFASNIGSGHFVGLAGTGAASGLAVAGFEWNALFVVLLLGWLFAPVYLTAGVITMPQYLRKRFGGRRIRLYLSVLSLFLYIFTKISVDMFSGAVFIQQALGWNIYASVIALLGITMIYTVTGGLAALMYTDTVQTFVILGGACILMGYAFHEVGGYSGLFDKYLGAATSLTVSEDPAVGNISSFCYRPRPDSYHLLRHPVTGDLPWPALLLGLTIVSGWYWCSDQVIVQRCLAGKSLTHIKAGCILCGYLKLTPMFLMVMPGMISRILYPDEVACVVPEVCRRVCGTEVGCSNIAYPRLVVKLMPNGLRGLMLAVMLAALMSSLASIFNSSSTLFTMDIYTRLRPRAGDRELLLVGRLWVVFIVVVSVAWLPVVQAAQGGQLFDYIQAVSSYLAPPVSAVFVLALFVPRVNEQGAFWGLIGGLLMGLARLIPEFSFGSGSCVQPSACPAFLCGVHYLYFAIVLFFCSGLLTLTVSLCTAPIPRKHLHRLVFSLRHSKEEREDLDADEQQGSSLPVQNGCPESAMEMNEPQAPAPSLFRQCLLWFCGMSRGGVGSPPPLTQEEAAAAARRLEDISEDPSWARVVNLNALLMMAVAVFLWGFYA
In words: Inhibition of human SGLT2.

Series [10] is described as follows: Inhibition of Saccharomyces cerevisiae alpha-glucosidase using p-nitrophenyl glucopyranoside as substrate preincubated for 10 mins followed by substrate addition measured after 20 mins by spectrophotometric analysis.
Series [11] is described as follows: Toxicity in mouse. Type of series: organism-based. Conditions: in vivo.

pEC50, pIC50: −log10 of the molar value.

Regarding `CC(C)(C)OC(=O)N1C2CCC1CC(Nc1nc(Nc3ccc(S(C)(=O)=O)cc3F)nc3c1CCCC3)C2` (stereo unspecified), the pEC50 in series [1] is 6.57.

Take `CC#CCn1c(N2CCC[C@@H](N)C2)cc(=O)n(Cc2cn(CC(=O)N(C)C)nn2)c1=O`: the pIC50 in [2] was 7.54.

Turning to `COc1cc(CCC[C@H]2OC(=O)NC2=O)ccc1OCc1nc(-c2ccco2)oc1C`, the ED25 is 0.05 mg/kg/day in [3] and 0.0561 mg/kg/day in series [5]. The pEC50 in series [4] was 8.05.

`Cc1ccc(NS(=O)(=O)c2ccc3c(c2)CCCC3)cc1`: in series [6], the pIC50 was 8.55.

For the compound `COc1cc(N2CCC(Oc3ccc(N4N=C(C(F)(F)F)[C@@H](C)C4CC(=O)O)cc3)C(C)C2)c(Cl)cn1` (stereo partly specified), the pEC50 in series [7] is 7.15.

In the case of `ONC[C@H]1C[C@@H](n2cc(Cc3ccc(C4CC4)cc3)c3c(Cl)cccc32)[C@H](O)[C@@H](O)[C@@H]1O`, the pEC50 in series [8] is 7.43; in series [9] it was 7.48.

For the compound `COc1ccc2c(c1)C(SCC(=O)NCc1ccc(C)cc1)c1ccc(Cl)cc1C2` (stereo unspecified), the pIC50 in series [10] was 4.10.

Consider `N#C[C@@H]1CCCN1C(=O)CNC12CC3CC(CC(O)(C3)C1)C2` [VILDAGLIPTIN], for which the MTD in series [11] stood at 2000 mg/kg.
